{"source": "patent US20240139197A1", "about": "“INHIBITION OF KDM5A FOR PROMOTING ANTIGEN PRESENTATION, INCREASING CD8+ T CELL INFILTRATION AND BOOSTING ANTI-TUMOR IMMUNE RESPONSE” (The Wistar Institute of Anatomy and Biology, priority 2022, published 2024)", "key": {"ID8 cells": {"tested_on": "ID8 cells", "assay": "cell viability by colony formation assay, ID8", "assay_type": "cell-based, mouse", "conditions": "ID8, 10 μM, 8 days", "experimental": "FIG. 2A-FIG. 2J show KDM5A inhibition suppresses tumor growth in vivo in an immune-competent mouse model of ovarian cancer. (FIG. 2A) Expression of Kdm5a, H3K4me3, and a loading control β-actin in doxycycline-inducible shKdm5a ID8 mouse EOC cells treated with or without 2 μg/mL of doxycycline. (FIG. 2B) ID8 cells were plated into 24 well plates and treated with 2 μg/mL of doxycycline the same day. Cells were incubated for 8 days. Relative cell viability was determined by colony formation assay. (FIG. 2C) Expression of Kdm5a, H3K4me3, and a loading control β-actin in ID8 cells treated with 10uM CPI-455 or vehicle control. (FIG. 2D) ID8 cells were plated into 24 well plates and incubated with 10 μM CPI-455 for 8 days with fresh drug-containing media every 3 days. Relative cell viability was determined by colony formation assay. (FIG. 2E) Ascites produced in C57BL/6 mice injected with doxycycline-inducible shKdm5a ID8 cells treated with control or doxycycline containing food. (FIG. 2F) Quantification of ascites volumes from FIG. 2E. (FIG. 2G) Kaplan-Meier survival curves for the indicated groups. […] (FIG. 21) Quantification of ascites volumes from FIG. 2H. […] Data represent mean±SEM of three biological repeats or 5 mice per group; P-value was calculated by using a two-tailed Student t test except in FIG. 2G and FIG. 2J by log rank tests. […]"}, "H3K4me3 in HGS2 cells": {"tested_on": "H3K4me3 in HGS2 cells", "assay": "immunoblot of H3K4me3, HGS2", "assay_type": "cell-based, mouse", "conditions": "HGS2, 10 μM, 72 hours", "experimental": "FIG. 6A-FIG. 6K show KDM5A inhibition promotes anti-tumor immune response in vivo. (FIG. 6A) Expression of H3K4me3, Kdm5a and a loading control b-actin in an independent second doxycycline-inducible shKdm5a ID8 clone treated with or without 2 μg/mL of doxycycline. (FIG. 6B) Same as FIG. 6A, but doxycycline-inducible shKdm5a ID8 cells were plated into 24 well plates and treated with 2 μg/mL of doxycycline the same day. Cells were incubated for 8 days. Relative cell viability was determined by colony formation assay. (FIG. 6C) Expression of H3K4me3, Kdm5a and a loading control b-actin in HGS2 cells treated 10 μM of CPI-455 or vehicle controls for 72 hours. […] Relative cell viability was determined by colony formation assay. (FIG. 6E-FIG. 6F) Bioluminescence signal was measured by IVIS system in indicated animal groups in the immunocompetent C57BL/6 mouse model once a week (FIG. 6E) and the survival of the indicated groups was determined by Kaplan-Meier survival curves (FIG. 6F) (n=5 mice per group). […] Ascites volumes produced from the indicated groups were quantified (FIG. 6H). n=5 mice per group. […] (FIG. 6J-FIG. 6K) Bioluminescence signal was measured by IVIS system in indicated animal groups in the immunocompromised NSG mouse model once a week (FIG. 6J), or examined for Kaplan-Meier survival curves for the indicated groups (FIG. 6K). […]"}}}
{"substance": "CPI-455", "values": [{"measurement": "cell viability", "setting": "ID8 cells", "value": "did not affect cell viability"}, {"measurement": "H3K4me3 levels", "setting": "H3K4me3 in HGS2 cells", "value": "increase H3K4me3 levels"}]}
